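A five-concentration, 48-hour dose response in 96-well plates underlies each endpoint, interpolated linearly between surrounding concentrations. GI50: concentration for 50% inhibition of growth.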 The source made the active and inactive calls. Rule as the data show it: active = GI50 up to about 1.1 µM and inactive = higher.
Tests used:
Assay in all cases: DTP human tumour cell line panel, 48 h
[1] = system: DMS-114
[2] = system: M14
[3] = system: DLD-1
[4] = system: HOP-92
[5] = system: HCC 2998
[6] = system: SK-MEL-5
[7] = system: SF-539
[8] = system: SF-295
[9] = system: NCI-H522
[10] = system: EKVX
[11] = system: OVCAR-3
[12] = system: SK-MEL-2
[13] = system: KM12
[14] = system: TK-10
[15] = system: RXF 393
[16] = system: SNB-78
[17] = system: LOX IMVI
[18] = system: UACC-62
[19] = system: SNB-75
[20] = system: MCF7

C[C@]12CCC3[C@@H](C[C@H]4OC(=O)[C@@]35CCC(=O)C=C45)C1CCC2=O (stereo partly specified)
GI50 [1]: > 100 µM (inactive)
GI50 [2]: > 100 µM (inactive)
GI50 [3]: > 100 µM (inactive)
GI50 [4]: > 100 µM (inactive)
GI50 [5]: > 100 µM (inactive)
GI50 [6]: > 100 µM (inactive)
GI50 [7]: > 100 µM (inactive)
GI50 [8]: > 100 µM (inactive)
GI50 [9]: > 100 µM (inactive)
GI50 [10]: > 100 µM (inactive)
GI50 [11]: > 100 µM (inactive)
GI50 [12]: > 100 µM (inactive)
GI50 [13]: > 100 µM (inactive)
GI50 [14]: > 100 µM (inactive)
GI50 [15]: > 100 µM (inactive)

Nc1nc(Cl)cc(NCCCCO)n1
GI50 [1]: > 100 µM (inactive)
GI50 [2]: > 10 µM (inactive)
GI50 [3]: > 100 µM (inactive)
GI50 [4]: > 100 µM (inactive)
GI50 [5]: > 100 µM (inactive)
GI50 [16]: 15.9 µM (inactive)
GI50 [17]: > 100 µM (inactive)
GI50 [18]: > 100 µM (inactive)
GI50 [6]: > 100 µM (inactive)
GI50 [7]: > 100 µM (inactive)
GI50 [8]: > 100 µM (inactive)
GI50 [10]: > 100 µM (inactive)
GI50 [11]: > 10 µM (inactive)
GI50 [12]: > 100 µM (inactive)
GI50 [13]: > 100 µM (inactive)
GI50 [14]: > 100 µM (inactive)
GI50 [19]: 65.3 µM (inactive)
GI50 [15]: > 100 µM (inactive)

COn1oc(=O)c2ccccc21
GI50 [2]: > 100 µM (inactive)
GI50 [4]: > 100 µM (inactive)
GI50 [20]: > 100 µM (inactive)
GI50 [5]: > 100 µM (inactive)
GI50 [17]: > 100 µM (inactive)
GI50 [18]: > 100 µM (inactive)
GI50 [6]: > 100 µM (inactive)
GI50 [7]: > 100 µM (inactive)
GI50 [8]: > 100 µM (inactive)
GI50 [9]: 11.5 µM (inactive)
GI50 [10]: > 100 µM (inactive)
GI50 [11]: > 100 µM (inactive)
GI50 [12]: > 100 µM (inactive)
GI50 [13]: > 100 µM (inactive)
GI50 [14]: > 100 µM (inactive)
GI50 [19]: > 100 µM (inactive)
GI50 [15]: > 100 µM (inactive)

COC(C[C@H]1CCCC[C@]1(O)/C(=C\CO[Si](C(C)C)(C(C)C)C(C)C)Sc1ccccc1)OC
GI50 [2]: 31.6 µM (inactive)
GI50 [4]: 20.5 µM (inactive)
GI50 [20]: > 100 µM (inactive)
GI50 [5]: 16.5 µM (inactive)
GI50 [17]: 18 µM (inactive)
GI50 [18]: > 100 µM (inactive)
GI50 [6]: 30.3 µM (inactive)
GI50 [8]: 32.4 µM (inactive)
GI50 [9]: 15.8 µM (inactive)
GI50 [10]: 37.4 µM (inactive)
GI50 [12]: 22.7 µM (inactive)
GI50 [13]: 41.3 µM (inactive)
GI50 [14]: > 100 µM (inactive)
GI50 [19]: 18.1 µM (inactive)
GI50 [15]: 16.1 µM (inactive)

CCOC(=O)CC1(c2cccc3ccccc23)OC(=O)c2ccccc21 (stereo unspecified)
GI50 [1]: 30.6 µM (inactive)
GI50 [3]: 8.69 µM (inactive)
GI50 [5]: 62.5 µM (inactive)
GI50 [16]: 66.4 µM (inactive)
GI50 [17]: 60.4 µM (inactive)
GI50 [18]: 57.7 µM (inactive)
GI50 [6]: 21.3 µM (inactive)
GI50 [8]: 34.4 µM (inactive)
GI50 [9]: 24.1 µM (inactive)
GI50 [10]: 63.2 µM (inactive)
GI50 [11]: 33.6 µM (inactive)
GI50 [12]: 32.1 µM (inactive)
GI50 [13]: 40.5 µM (inactive)
GI50 [14]: 80 µM (inactive)
GI50 [19]: 14 µM (inactive)
GI50 [15]: 16.3 µM (inactive)

O=S(O)CCCCCSSc1ccccc1
GI50 [1]: 23.6 µM (inactive)
GI50 [2]: 43.8 µM (inactive)
GI50 [3]: 54.8 µM (inactive)
GI50 [5]: > 100 µM (inactive)
GI50 [16]: 41 µM (inactive)
GI50 [17]: 20 µM (inactive)
GI50 [18]: 28.3 µM (inactive)
GI50 [7]: 22.8 µM (inactive)
GI50 [9]: 15.3 µM (inactive)
GI50 [10]: > 100 µM (inactive)
GI50 [11]: 43.7 µM (inactive)
GI50 [12]: 18.2 µM (inactive)
GI50 [13]: 53.3 µM (inactive)
GI50 [14]: 84.9 µM (inactive)
GI50 [19]: 37.3 µM (inactive)
GI50 [15]: 18.3 µM (inactive)

Nc1nc(SCCc2ccccc2)nc2nc3c(c(-c4ccccc4)c12)CCCC3
GI50 [2]: > 100 µM (inactive)
GI50 [20]: > 100 µM (inactive)
GI50 [17]: > 100 µM (inactive)
GI50 [18]: > 100 µM (inactive)
GI50 [6]: > 10 µM (inactive)
GI50 [7]: 0.706 µM (active)
GI50 [8]: > 100 µM (inactive)
GI50 [10]: > 100 µM (inactive)
GI50 [11]: > 100 µM (inactive)
GI50 [13]: > 100 µM (inactive)
GI50 [14]: > 100 µM (inactive)
GI50 [19]: 34.9 µM (inactive)
GI50 [15]: 24.3 µM (inactive)

Oc1cc(-c2ccc(Cl)cc2)nc2ncccc12
GI50 [2]: 40.5 µM (inactive)
GI50 [4]: 41.2 µM (inactive)
GI50 [20]: 16.6 µM (inactive)
GI50 [5]: 69 µM (inactive)
GI50 [17]: 49 µM (inactive)
GI50 [18]: 28.9 µM (inactive)
GI50 [7]: 45.5 µM (inactive)
GI50 [9]: 40.3 µM (inactive)
GI50 [10]: 52.2 µM (inactive)
GI50 [12]: 31 µM (inactive)
GI50 [13]: 14.9 µM (inactive)
GI50 [14]: 94.4 µM (inactive)
GI50 [19]: 24.5 µM (inactive)

C=C1C(O)C2(O)OCC34C(CC5C(C)=CC(=O)C(O)C5(C)C23)OC(=O)C(OC(=O)C/C=C/CCCCCCCC)C14 (stereo unspecified)
GI50 [1]: 0.02 µM (active)
GI50 [3]: 0.02 µM (active)
GI50 [4]: 0.02 µM (active)
GI50 [5]: 0.02 µM (active)
GI50 [16]: 0.0219 µM (active)
GI50 [17]: 0.0237 µM (active)
GI50 [18]: 0.0214 µM (active)
GI50 [7]: 0.0208 µM (active)
GI50 [9]: 0.02 µM (active)
GI50 [10]: 0.02 µM (active)
GI50 [12]: 0.0241 µM (active)
GI50 [13]: 0.0294 µM (active)
GI50 [19]: 0.0228 µM (active)
GI50 [15]: 0.0223 µM (active)

O=C(NC(Cc1ccc(I)cc1)C(=O)O)c1cccc(Br)c1 (stereo unspecified)
GI50 [1]: 48 µM (inactive)
GI50 [3]: > 100 µM (inactive)
GI50 [4]: 44.9 µM (inactive)
GI50 [20]: 38 µM (inactive)
GI50 [5]: 22.4 µM (inactive)
GI50 [16]: > 100 µM (inactive)
GI50 [17]: > 95.9 µM (inactive)
GI50 [18]: 50.6 µM (inactive)
GI50 [6]: > 100 µM (inactive)
GI50 [7]: 84.1 µM (inactive)
GI50 [8]: > 100 µM (inactive)
GI50 [9]: > 61.1 µM (inactive)
GI50 [10]: > 61.7 µM (inactive)
GI50 [11]: 54.6 µM (inactive)
GI50 [12]: > 80.7 µM (inactive)
GI50 [13]: 55.1 µM (inactive)
GI50 [19]: 39.2 µM (inactive)

Cc1cc([N+](=O)[O-])ccc1/N=N/C(=O)NNc1ccc([N+](=O)[O-])cc1C
GI50 [2]: 13.6 µM (inactive)
GI50 [20]: 3.18 µM (inactive)
GI50 [5]: 16 µM (inactive)
GI50 [17]: 15.9 µM (inactive)
GI50 [18]: 13.5 µM (inactive)
GI50 [6]: 13.6 µM (inactive)
GI50 [9]: 25 µM (inactive)
GI50 [11]: 18.8 µM (inactive)
GI50 [12]: 21 µM (inactive)
GI50 [14]: 16.7 µM (inactive)
GI50 [19]: 17 µM (inactive)

CCC1NC(/N=N/c2ccc([N+](=O)[O-])cc2)(P(=O)(OC(C)C)OC(C)C)OC1=O (stereo unspecified)
GI50 [2]: > 100 µM (inactive)
GI50 [3]: > 100 µM (inactive)
GI50 [4]: > 100 µM (inactive)
GI50 [5]: > 100 µM (inactive)
GI50 [16]: > 100 µM (inactive)
GI50 [18]: 97.1 µM (inactive)
GI50 [6]: > 100 µM (inactive)
GI50 [7]: > 100 µM (inactive)
GI50 [8]: > 100 µM (inactive)
GI50 [9]: > 100 µM (inactive)
GI50 [10]: > 100 µM (inactive)
GI50 [11]: > 100 µM (inactive)
GI50 [12]: > 100 µM (inactive)
GI50 [13]: > 100 µM (inactive)
GI50 [14]: > 100 µM (inactive)
GI50 [19]: 23.6 µM (inactive)

Reference: ChEMBL document CHEMBL1201862, “PubChem BioAssay data set” (2004)
